Literature values in patent US20250127175A1, “ANTIMICROBIAL POLYMER COMPOSITIONS, ANTIMICROBIAL POLYMER ARTICLES, AND METHODS OF MAKING THE SAME” (CORNING INCORPORATED, priority 2021, published 2025).

Conditions: water-soluble defined as minimum of 20 grams in 100 milliliters of water at 25° C.

## CCCCn1cc[n+](C)c1.F[P-](F)(F)(F)(F)F [1-butyl-3-methylimidazolium hexafluorophosphate]
  water solubility (in words): water insoluble
